# Source: US20100267561A1, “HERBICIDAL PYRIDAZINONE DERIVATIVES” (priority 2007, published 2010)
# Tests used:
# Assay in all cases: Test B pre-/postemergence plant response
# Assay type in all cases: in vivo
# [1] = system: Italian ryegrass (Lolium multiflorum); conditions: for Ryegrass, Italian plant response rating: 8 g ai/ha
# How it was run: (§1)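 Seeds were sown and sprayed preemergence, while plants at 2 to 18 cm (1- to 4-leaf stage) got postemergence sprays. Compounds were formulated in a non-phytotoxic solvent mixture with surfactant. After 13 to 15 days in a greenhouse, injury was rated visually against untreated controls, 0 (no effect) to 100 (complete control).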
# [2] = system: bermudagrass (Cynodon dactylon); conditions: for Bermudagrass plant response rating: 8 g ai/ha
# How it was run: as §1
# [3] = system: cocklebur (Xanthium strumarium); conditions: for Cocklebur plant response rating: 8 g ai/ha
# How it was run: as §1
# [4] = system: common (oilseed) sunflower (Helianthus annuus); conditions: Preemergence
# How it was run: as §1
# [5] = system: common ragweed (Ambrosia elation); conditions: for Ragweed plant response rating: 8 g ai/ha
# How it was run: as §1
# [6] = system: goosegrass (Eleusine indica); conditions: for Goosegrass plant response rating: 8 g ai/ha
# How it was run: as §1
# [7] = system: johnsongrass (Sorghum halepense); conditions: for Johnsongrass plant response rating: 8 g ai/ha
# How it was run: as §1
# [8] = system: kochia (Kochia scoparia); conditions: for Kochia plant response rating: 8 g ai/ha
# How it was run: as §1
# [9] = system: lambsquarters (Chenopodium album); conditions: for Lambsquarters plant response rating: 8 g ai/ha
# How it was run: as §1
# [10] = system: morningglory (Ipomoea coccinea); conditions: for Morningglory plant response rating: 8 g ai/ha
# How it was run: as §1
# [11] = system: soybean (Glycine max); conditions: for Soybean plant response rating: 8 g ai/ha
# How it was run: as §1
# [12] = system: surinam grass (Brachiaria decumbens); conditions: for Surinam Grass plant response rating: 8 g ai/ha
# How it was run: as §1
# [13] = system: velvetleaf (Abutilon theophrasti); conditions: for Velvetleaf plant response rating: 8 g ai/ha
# How it was run: as §1
# [14] = system: wheat (Triticum aestivum); conditions: for Wheat plant response rating: 8 g ai/ha
# How it was run: as §1
# [15] = Postemergence, 16 g ai/ha, scale 0 to 100
# [16] = Postemergence, 31 g ai/ha, scale 0 to 100, 0 no effect, 100 complete control
# [17] = Postemergence, 62 g ai/ha, scale 0 to 100, 0 no effect, 100 complete control
# [18] = Preemergence, 16 g ai/ha, scale 0 to 100 (0 no effect, 100 complete control)
# [19] = Preemergence, 31 g ai/ha, scale 0 to 100 (0 no effect, 100 complete control)
# [20] = Preemergence, 62 g ai/ha, scale 0 to 100
# [21] = Preemergence, 31 g ai/ha, 0 to 100 scale, 0 no effect, 100 complete control
# [22] = Preemergence, 62 g ai/ha, 0 to 100 scale, 0 no effect, 100 complete control
smiles,measurement,setting,value
CCc1cc(-c2ccc(Cl)cc2)nn1-c1c(OC(=O)OC(C)C)cnn(C)c1=O [Compound 41],"Ryegrass, Italian plant response rating","[1]; postemergence, 0-100 scale",90
same,"Plant response rating, Ryegrass, Italian",[1]; [15],98
same,"Plant response rating, Ryegrass, Italian",[1]; [16],100
same,"Plant response rating, Ryegrass, Italian",[1]; [17],100
same,"Plant response rating, Ryegrass, Italian",[1]; [18],85
same,"Plant response rating, Ryegrass, Italian",[1]; [19],100
same,"Plant response rating, Ryegrass, Italian",[1]; [20],100
same,"Ryegrass, Italian plant response rating","[1]; Preemergence, scale 0 to 100",85
same,Bermudagrass plant response rating,"[2]; postemergence, 0-100 scale",0
same,"Plant response rating, Bermudagrass",[2]; [15],0
same,"Plant response rating, Bermudagrass",[2]; [16],25
same,"Plant response rating, Bermudagrass",[2]; [17],95
same,Bermudagrass plant response rating,"[2]; Preemergence, scale 0 to 100 (0 no effect, 100 complete control)",0
same,"Plant response rating, Bermudagrass",[2]; [18],0
same,"Plant response rating, Bermudagrass",[2]; [21],0
same,"Plant response rating, Bermudagrass",[2]; [20],0
same,Cocklebur plant response rating,"[3]; postemergence, 0-100 scale",0
same,"Plant response rating, Cocklebur",[3]; [15],0
same,"Plant response rating, Cocklebur",[3]; [16],0
same,"Plant response rating, Cocklebur",[3]; [17],0
same,"Plant response rating, Cocklebur",[3]; [18],0
same,"Plant response rating, Cocklebur",[3]; [21],0
same,"Plant response rating, Cocklebur",[3]; [20],0
same,Cocklebur plant response rating,"[3]; Preemergence, scale 0 to 100",0
same,"Plant response rating, Sunflower","[4]; 16 g ai/ha, scale 0 to 100 (0 no effect, 100 complete control)",0
same,"Plant response rating, Sunflower","[4]; 31 g ai/ha, scale 0 to 100 (0 no effect, 100 complete control)",0
same,"Plant response rating, Sunflower","[4]; 62 g ai/ha, scale 0 to 100",0
same,Sunflower plant response rating,"[4]; 8 g ai/ha, scale 0 to 100",0
same,Ragweed plant response rating,"[5]; postemergence, 0-100 scale",0
same,"Plant response rating, Ragweed",[5]; [15],0
same,"Plant response rating, Ragweed",[5]; [16],0
same,"Plant response rating, Ragweed",[5]; [17],0
same,"Plant response rating, Ragweed",[5]; [18],0
same,"Plant response rating, Ragweed",[5]; [19],0
same,"Plant response rating, Ragweed",[5]; [20],0
same,Ragweed plant response rating,"[5]; Preemergence, scale 0 to 100",0
same,Goosegrass plant response rating,"[6]; postemergence, 0-100 scale",80
same,"Plant response rating, Goosegrass",[6]; [15],80
same,"Plant response rating, Goosegrass",[6]; [16],85
same,"Plant response rating, Goosegrass",[6]; [17],98
same,"Plant response rating, Goosegrass",[6]; [18],0
same,"Plant response rating, Goosegrass",[6]; [21],0
same,"Plant response rating, Goosegrass",[6]; [20],0
same,Goosegrass plant response rating,"[6]; Preemergence, scale 0 to 100",0
same,Johnsongrass plant response rating,"[7]; postemergence, 0-100 scale",50
same,"Plant response rating, Johnsongrass",[7]; [15],50
same,"Plant response rating, Johnsongrass",[7]; [16],60
same,"Plant response rating, Johnsongrass",[7]; [17],75
same,"Plant response rating, Johnsongrass",[7]; [18],65
same,"Plant response rating, Johnsongrass",[7]; [21],70
same,"Plant response rating, Johnsongrass",[7]; [20],95
same,Johnsongrass plant response rating,"[7]; Preemergence, scale 0 to 100",20
same,Kochia plant response rating,"[8]; postemergence, 0-100 scale",0
same,"Plant response rating, Kochia",[8]; [15],0
same,"Plant response rating, Kochia",[8]; [16],0
same,"Plant response rating, Kochia",[8]; [17],0
same,"Plant response rating, Kochia",[8]; [18],0
same,"Plant response rating, Kochia",[8]; [21],0
same,"Plant response rating, Kochia",[8]; [20],0
same,Kochia plant response rating,"[8]; Preemergence, scale 0 to 100",0
same,Lambsquarters plant response rating,"[9]; postemergence, 0-100 scale",0
same,"Plant response rating, Lambsquarters",[9]; [15],0
same,"Plant response rating, Lambsquarters",[9]; [16],0
same,"Plant response rating, Lambsquarters",[9]; [17],0
same,"Plant response rating, Lambsquarters",[9]; [18],0
same,"Plant response rating, Lambsquarters",[9]; [21],0
same,"Plant response rating, Lambsquarters",[9]; [20],0
same,Lambsquarters plant response rating,"[9]; Preemergence, scale 0 to 100",0
same,Morningglory plant response rating,"[10]; postemergence, 0-100 scale",0
same,"Plant response rating, Morningglory",[10]; [15],0
same,"Plant response rating, Morningglory",[10]; [16],0
same,"Plant response rating, Morningglory",[10]; [17],0
same,"Plant response rating, Morningglory",[10]; [18],0
same,"Plant response rating, Morningglory",[10]; [19],0
same,"Plant response rating, Morningglory",[10]; [20],0
same,Morningglory plant response rating,"[10]; Preemergence, scale 0 to 100",0
same,Soybean plant response rating,"[11]; postemergence, 0-100 scale",0
same,"Plant response rating, Soybean",[11]; [15],0
same,"Plant response rating, Soybean",[11]; [17],0
same,"Plant response rating, Soybean",[11]; [18],0
same,"Plant response rating, Soybean",[11]; [19],0
same,"Plant response rating, Soybean",[11]; [20],0
same,Soybean plant response rating,"[11]; Preemergence, scale 0 to 100",0
same,Surinam Grass plant response rating,"[12]; postemergence, 0-100 scale",100
same,"Plant response rating, Surinam Grass",[12]; [15],100
same,"Plant response rating, Surinam Grass",[12]; [17],100
same,"Plant response rating, Surinam Grass",[12]; [18],40
same,"Plant response rating, Surinam Grass",[12]; [19],55
same,"Plant response rating, Surinam Grass",[12]; [22],100
same,Surinam Grass plant response rating,"[12]; Preemergence, scale 0 to 100",0
same,Velvetleaf plant response rating,"[13]; postemergence, 0-100 scale",0
same,"Plant response rating, Velvetleaf",[13]; [15],0
same,"Plant response rating, Velvetleaf",[13]; [17],0
same,"Plant response rating, Velvetleaf",[13]; [18],0
same,"Plant response rating, Velvetleaf",[13]; [19],0
same,"Plant response rating, Velvetleaf",[13]; [22],0
same,Velvetleaf plant response rating,"[13]; Preemergence, scale 0 to 100",0
same,Wheat plant response rating,"[14]; postemergence, 0-100 scale",80
same,"Plant response rating, Wheat",[14]; [15],85
same,"Plant response rating, Wheat",[14]; [17],85
same,"Plant response rating, Wheat",[14]; [18],15
same,"Plant response rating, Wheat",[14]; [19],60
same,"Plant response rating, Wheat",[14]; [22],100
same,Wheat plant response rating,"[14]; Preemergence, scale 0 to 100",10
